According to ChEMBL document CHEMBL4828714, “Mutasynthesis of Antibacterial Halogenated Actinomycin Analogues” (J Nat Prod, 2021):
In brackets after ≈: the same amount, converted by molar mass.

Tests used:
[1] = test system: HL-60; test: Cytotoxicity against human HL-60 cells assessed as growth inhibition incubated for 68 hrs by MTT assay; assay type: functional, cell-based; conditions: HL-60, 68 h
[2] = test system: BEAS-2B; test: Cytotoxicity against human BEAS-2B cells assessed as growth inhibition incubated for 68 hrs by MTT assay; assay type: cell-based
[3] = test system: Staphylococcus aureus; test: Antimicrobial activity against Staphylococcus aureus Sau 6917 assessed as inhibition of bacterial growth incubated for 16 to 18 hrs by broth micro dilution technique; assay type: functional; conditions: time 16-18 hrs
[4] = test system: L02; test: Cytotoxicity against human L02 cells assessed as growth inhibition incubated for 68 hrs by MTT assay; assay type: cell-based; conditions: L02, 68 h
[5] = test system: Staphylococcus aureus; test: Antimicrobial activity against Staphylococcus aureus ATCC 29213 assessed as inhibition of bacterial growth incubated for 16 to 18 hrs by broth micro dilution technique; assay type: functional; conditions: time 16-18 hrs
[6] = test system: Enterococcus faecalis; test: Antimicrobial activity against Enterococcus faecalis ATCC 29212 assessed as inhibition of bacterial growth incubated for 16 to 18 hrs by broth micro dilution technique; assay type: functional; conditions: time 16-18 hrs
[7] = test system: RKO; test: Cytotoxicity against human RKO cells assessed as growth inhibition incubated for 68 hrs by MTT assay; assay type: functional, cell-based
[8] = test system: Staphylococcus aureus; test: Antimicrobial activity against Staphylococcus aureus Sau 16162 assessed as inhibition of bacterial growth incubated for 16 to 18 hrs by broth micro dilution technique; assay type: functional; conditions: time 16-18 hrs
[9] = test system: MCF7; test: Cytotoxicity against human MCF7 cells assessed as growth inhibition incubated for 68 hrs by MTT assay; assay type: functional, cell-based; conditions: MCF7, 68 h
[10] = test system: Micrococcus luteus; test: Antimicrobial activity against Micrococcus luteus ML01 assessed as inhibition of bacterial growth incubated for 16 to 18 hrs by broth micro dilution technique; assay type: functional; conditions: time 16-18 hrs
[11] = test system: Staphylococcus aureus; test: Antimicrobial activity against Staphylococcus aureus Sau 1862 assessed as inhibition of bacterial growth incubated for 16 to 18 hrs by broth micro dilution technique; assay type: functional; conditions: time 16-18 hrs
[12] = test system: Candida albicans; test: Antimicrobial activity against Candida albicans assessed as inhibition of bacterial growth incubated for 16 to 18 hrs by broth micro dilution technique; assay type: functional; conditions: time 16-18 hrs
[13] = test system: Staphylococcus aureus; test: Antimicrobial activity against Staphylococcus aureus Sau 991 assessed as inhibition of bacterial growth incubated for 16 to 18 hrs by broth micro dilution technique; assay type: functional; conditions: time 16-18 hrs
[14] = test system: A549; test: Cytotoxicity against human A549 cells assessed as growth inhibition incubated for 68 hrs by MTT assay; assay type: functional, cell-based; conditions: A549, 68 h
[15] = test system: Bacillus thuringiensis; test: Antimicrobial activity against Bacillus thuringiensis BT01 assessed as inhibition of bacterial growth incubated for 16 to 18 hrs by broth micro dilution technique; assay type: functional; conditions: time 16-18 hrs
[16] = test system: HepG2; test: Cytotoxicity against human HepG2 cells assessed as growth inhibition incubated for 68 hrs by MTT assay; assay type: functional, cell-based; conditions: HepG2, 68 h
[17] = test system: Staphylococcus aureus; test: Antimicrobial activity against Staphylococcus aureus CCAM 3090 assessed as inhibition of bacterial growth incubated for 16 to 18 hrs by broth micro dilution technique; assay type: functional; conditions: time 16-18 hrs
[18] = test system: Enterococcus faecium; test: Antimicrobial activity against Enterococcus faecium ATCC 35682 assessed as inhibition of bacterial growth incubated for 16 to 18 hrs by broth micro dilution technique; assay type: functional; conditions: time 16-18 hrs
[19] = test system: Staphylococcus aureus; test: Antimicrobial activity against Staphylococcus aureus Sau 718306 assessed as inhibition of bacterial growth incubated for 16 to 18 hrs by broth micro dilution technique; assay type: functional; conditions: time 16-18 hrs
[20] = test system: HeLa; test: Cytotoxicity against human HeLa cells assessed as growth inhibition incubated for 68 hrs by MTT assay; assay type: functional, cell-based
[21] = test system: Staphylococcus aureus; test: Antimicrobial activity against Staphylococcus aureus Sau 745524 assessed as inhibition of bacterial growth incubated for 16 to 18 hrs by broth micro dilution technique; assay type: functional; conditions: time 16-18 hrs

Structure (SMILES) | IC50 [1] [µM] | IC50 [2] [µM] | MIC [3] [µg/mL] | IC50 [4] [µM] | MIC [5] [µg/mL] | MIC [6] [µg/mL] | IC50 [7] [µM] | MIC [8] [µg/mL] | IC50 [9] [µM] | MIC [10] [µg/mL] | MIC [11] [µg/mL] | MIC [12] [µg/mL] | MIC [13] [µg/mL] | IC50 [14] [µM] | MIC [15] [µg/mL] | IC50 [16] [µM] | MIC [17] [µg/mL] | MIC [18] [µg/mL] | MIC [19] [µg/mL] | MIC [21] [µg/mL] | other results
CC(C)[C@H]1C(=O)O[C@H](C)[C@H](NC(=O)c2c3nc4c(C(=O)N[C@@H]5C(=O)N[C@H](C(C)C)C(=O)N6CCC[C@H]6C(=O)N(C)CC(=O)N(C)[C@@H](C(C)C)C(=O)O[C@@H]5C)ccc(Cl)c4oc-3c(Cl)c(=O)c2N)C(=O)N[C@H](C(C)C)C(=O)N2CCC[C@H]2C(=O)N(C)CC(=O)N1C | 0.2 | 1 | 32 (≈ 24.7 µM) | 4.6 | 32 (≈ 24.7 µM) | 16 (≈ 12.3 µM) | 11.1 | 16 (≈ 12.3 µM) | 17.3 | 0.06 (≈ 0.0463 µM) | 16 (≈ 12.3 µM) | 16 (≈ 12.3 µM) | 16 (≈ 12.3 µM) | 4.5 | 0.5 (≈ 0.386 µM) | 2.8 | 32 (≈ 24.7 µM) | 0.13 (≈ 0.1 µM) | 16 (≈ 12.3 µM) | 16 (≈ 12.3 µM) | IC50 [20]: 51 µM
CC(C)[C@H]1C(=O)O[C@H](C)[C@H](NC(=O)c2c3nc4c(C(=O)N[C@@H]5C(=O)N[C@H](C(C)C)C(=O)N6CCC[C@H]6C(=O)N(C)CC(=O)N(C)[C@@H](C(C)C)C(=O)O[C@@H]5C)ccc(F)c4oc-3c(F)c(=O)c2N)C(=O)N[C@H](C(C)C)C(=O)N2CCC[C@H]2C(=O)N(C)CC(=O)N1C | > 50 | > 50 | 32 (≈ 25.3 µM) | > 50 | 32 (≈ 25.3 µM) | 64 (≈ 50.7 µM) | > 50 | 32 (≈ 25.3 µM) | 17.1 | 2 (≈ 1.58 µM) | 32 (≈ 25.3 µM) | 64 (≈ 50.7 µM) | 32 (≈ 25.3 µM) | > 50 | 16 (≈ 12.7 µM) | > 50 | 32 (≈ 25.3 µM) | 4 (≈ 3.17 µM) | 32 (≈ 25.3 µM) | 32 (≈ 25.3 µM) | IC50 [20]: > 50 µM
CC(C)[C@H]1C(=O)O[C@H](C)[C@H](NC(=O)c2c3nc4c(C(=O)N[C@@H]5C(=O)N[C@H](C(C)C)C(=O)N6CCC[C@H]6C(=O)N(C)CC(=O)N(C)[C@@H](C(C)C)C(=O)O[C@@H]5C)cccc4oc-3c(Cl)c(=O)c2N)C(=O)N[C@H](C(C)C)C(=O)N2CCC[C@H]2C(=O)N(C)CC(=O)N1C |  |  | 16 (≈ 12.7 µM) |  | 16 (≈ 12.7 µM) | 16 (≈ 12.7 µM) |  | 32 (≈ 25.4 µM) |  | 0.25 (≈ 0.198 µM) | 8 (≈ 6.34 µM) | 8 (≈ 6.34 µM) | 8 (≈ 6.34 µM) |  | 4 (≈ 3.17 µM) |  | 16 (≈ 12.7 µM) | 2 (≈ 1.59 µM) | 8 (≈ 6.34 µM) | 8 (≈ 6.34 µM) | 
CC1(C)S[C@@H]2[C@H](NC(=O)[C@H](N)c3ccccc3)C(=O)N2[C@H]1C(=O)O [AMPICILLIN] |  |  | 8 (≈ 22.9 µM) |  | 1 (≈ 2.86 µM) | 32 (≈ 91.6 µM) |  | 64 (≈ 183 µM) |  | 0.13 (≈ 0.372 µM) | 8 (≈ 22.9 µM) | 0.13 (≈ 0.372 µM) |  |  | 2 (≈ 5.72 µM) |  | > 64 | > 64 |  | 2 (≈ 5.72 µM) | 
CN[C@H](CC(C)C)C(=O)N[C@H]1C(=O)N[C@@H](CC(N)=O)C(=O)N[C@H]2C(=O)N[C@H]3C(=O)N[C@H](C(=O)N[C@H](C(=O)O)c4cc(O)cc(O)c4-c4cc3ccc4O)[C@H](O)c3ccc(c(Cl)c3)Oc3cc2cc(c3O[C@@H]2O[C@H](CO)[C@@H](O)[C@H](O)[C@H]2O[C@H]2C[C@](C)(N)[C@H](O)[C@H](C)O2)Oc2ccc(cc2Cl)[C@H]1O [VANCOMYCIN] |  |  |  |  |  | 1 (≈ 0.69 µM) |  | 64 (≈ 44.2 µM) |  | 0.25 (≈ 0.173 µM) |  | 0.25 (≈ 0.173 µM) |  |  | 4 (≈ 2.76 µM) |  | 0.25 (≈ 0.173 µM) | > 64 |  |  | 
